Measured values: publication PMC5522529, “Mechanisms of Paradoxical Activation of AMPK by the Kinase Inhibitors SU6656 and Sorafenib” (Cell Chemical Biology, 2017)

What was measured:
[1] = test system: Erk1/Erk2; assay: Erk1/Erk2 phosphorylation in HEK293 cells (western blot); format: cell-based, human; conditions: SU6656 100 μM, PP2 100 nM
[2] = test system: Erk1/2; assay: Erk1/2 phosphorylation in SYF cells; format: cell-based, mouse; conditions: SU6656 100 μM, PP2 100 nM
[3] = target: T1, AMPK-γ1 R299G (RG) complexes (Homo sapiens, UniProt P54619, R299G); assay: Activation by LKB1 of FLAG-AMPK-γ1 R299G (RG) complexes precipitated from HeLa cells; format: biochemical; conditions: RG mutant γ1; AMP 200 μM or SU6656 3 μM, 10 min
T1 construct: Plasmid encoding full-length human AMPK-γ1; expressed in transfected cells; host or cells: HeLa
T1 sequence (P54619 whole entry R299G, one chain of several): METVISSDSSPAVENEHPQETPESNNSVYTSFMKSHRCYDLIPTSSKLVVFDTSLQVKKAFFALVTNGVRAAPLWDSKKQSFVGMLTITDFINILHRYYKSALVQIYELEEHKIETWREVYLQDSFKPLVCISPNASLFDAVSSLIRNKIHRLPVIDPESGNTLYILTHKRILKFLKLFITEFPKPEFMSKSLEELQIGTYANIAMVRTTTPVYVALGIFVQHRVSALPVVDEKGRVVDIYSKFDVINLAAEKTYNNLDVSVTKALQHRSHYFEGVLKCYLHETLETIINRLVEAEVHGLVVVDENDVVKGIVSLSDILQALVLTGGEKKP
From the text: (B) Effect of ATP concentration on kinase activity of α2-KD in the presence of increasing concentrations of SU6656. Results (mean, n = 2) were fitted to the equation Y= (Vmax × X)/(Km × (1 + I/Ki) + X), where Y is the activity, X is the ATP concentration, I is the concentration of SU6656, and Ki is the inhibitory constant for SU6656. […] (D and E) Effect of increasing concentrations of SU6656 on activity (D) and Thr172 phosphorylation (E) induced by LKB1 with unphosphorylated α2-KD (WT/AT mutant). Results in (D) are mean ± SEM (n = 3); and were fitted to same equation as Figure 4C. […] See also Figure S3. (F) Effect of AMP (2 mM) and SU6656 on inactivation of AMPK by PP2Cα in the presence of 5 mM ATP. […] (G) Effects of AMP or SU6656 on activation (top) and Thr172 phosphorylation (bottom) by LKB1 of AMPK-γ1 complexes expressed in HeLa cells. FLAG-tagged AMPK-γ1, either wild-type (WT) or R299G mutant (RG), was expressed in HeLa cells and AMPK complexes precipitated using anti-FLAG antibody. The complexes (which have low basal phosphorylation due to lack of LKB1 in HeLa cells) were incubated with or without a limiting amount of LKB1, AMP (200 μM) or SU6656 (3 μM) for 10 min and AMPK activity determined. […]

[4] = target: T2, human AMPK-α2 Y436F mutant (Homo sapiens, UniProt P54646, Y436F); assay: AMPK activity of FLAG-tagged Y436F AMPK-α2 expressed in HEK293 cells; format: cell-based; conditions: SU6656 100 μM, phenformin 10 mM, A23187 10 μM, 1 hr
T2 construct: expressed in transfected cells; host or cells: HEK293 (transient transfection)
T2 sequence (P54646 whole entry Y436F): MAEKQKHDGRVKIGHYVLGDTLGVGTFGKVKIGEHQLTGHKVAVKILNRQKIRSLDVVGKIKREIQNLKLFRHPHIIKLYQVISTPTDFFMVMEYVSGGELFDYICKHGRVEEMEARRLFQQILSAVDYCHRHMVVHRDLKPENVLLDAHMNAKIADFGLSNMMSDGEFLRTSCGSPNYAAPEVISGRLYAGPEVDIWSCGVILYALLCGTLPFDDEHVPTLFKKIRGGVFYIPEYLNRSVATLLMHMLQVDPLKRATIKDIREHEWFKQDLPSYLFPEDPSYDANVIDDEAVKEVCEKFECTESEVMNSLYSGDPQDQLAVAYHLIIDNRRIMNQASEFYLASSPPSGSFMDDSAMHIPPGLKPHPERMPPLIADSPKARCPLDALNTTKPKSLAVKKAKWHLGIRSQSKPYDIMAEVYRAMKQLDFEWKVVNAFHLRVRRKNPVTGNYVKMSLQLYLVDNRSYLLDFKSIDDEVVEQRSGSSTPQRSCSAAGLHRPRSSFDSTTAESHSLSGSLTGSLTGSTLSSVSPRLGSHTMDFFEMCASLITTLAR
T2 sequence (P54619 whole entry partner): as the sequence (P54619 whole entry R299G, one chain of several) above, with G299R counted along it
Experimental: Top: AMPK activity (mean ± SEM, n = 4); bottom: western blots showing phosphorylation of Thr172 on AMPK, and of ERK1/2, in cells treated with DMSO (control), SU6656 (100 μM), or PP2 (100 nM) (n = 2). (B) As (A), but in SYF cells. (C) HeLa cells were transfected with DNAs encoding GFP alone, or GFP fused to WT, Y261F/Y365F (FF), or Y36F/Y261F/Y365F (FFF) mutants of LKB1; cells were treated with increasing concentrations of SU6656 for 1 hr and AMPK activity determined (mean ± SEM, n = 4). See also Figure S1. (D) HEK293 cells were transfected with DNAs encoding FLAG-tagged AMPK-α2 with or without a Y436F mutation. Cells were incubated with DMSO (control), 100 μM SU6656, 10 mM phenformin, or 10 μM A23187 for 1 hr; AMPK complexes were immunoprecipitated using anti-FLAG antibody and assayed. The top panels show kinase activities (mean ± SD, n = 3); the bottom panels show blots from the same experiment (n = 2). In all panels, asterisks indicate significant differences from DMSO controls; in (D), there were no significant differences between the WT and Y463F mutant. **p < 0.01, ****p < 0.0001.

[5] = test system: purified rat liver AMPK; assay: Kinase assay of purified rat liver AMPK at 2 mM ATP; format: biochemical; conditions: ± 1 mM AMP
[6] = target: T3, α2-KD (Homo sapiens, UniProt P54646); assay: Activation and phosphorylation of unphosphorylated α2-KD (WT) by LKB1; format: biochemical
T3 construct: amplifying residues 1-310 with 5' BamH1 and 3' Xho1 sites; made in house; host or cells: bacteria
T3 sequence (P54646 1-310): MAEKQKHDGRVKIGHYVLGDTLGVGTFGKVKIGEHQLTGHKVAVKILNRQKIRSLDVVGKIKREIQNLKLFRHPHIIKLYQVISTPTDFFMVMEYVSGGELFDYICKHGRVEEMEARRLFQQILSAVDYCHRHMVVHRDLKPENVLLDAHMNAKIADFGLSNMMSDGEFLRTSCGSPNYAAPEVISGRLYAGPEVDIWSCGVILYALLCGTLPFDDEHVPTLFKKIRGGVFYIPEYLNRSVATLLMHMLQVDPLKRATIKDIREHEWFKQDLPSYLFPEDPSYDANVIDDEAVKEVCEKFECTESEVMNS
From the text: (B) Effect of ATP concentration on kinase activity of α2-KD in the presence of increasing concentrations of SU6656. Results (mean, n = 2) were fitted to the equation Y= (Vmax × X)/(Km × (1 + I/Ki) + X), where Y is the activity, X is the ATP concentration, I is the concentration of SU6656, and Ki is the inhibitory constant for SU6656. […] (D and E) Effect of increasing concentrations of SU6656 on activity (D) and Thr172 phosphorylation (E) induced by LKB1 with unphosphorylated α2-KD (WT/AT mutant). Results in (D) are mean ± SEM (n = 3); and were fitted to same equation as Figure 4C. […] See also Figure S3. (F) Effect of AMP (2 mM) and SU6656 on inactivation of AMPK by PP2Cα in the presence of 5 mM ATP. […] (G) Effects of AMP or SU6656 on activation (top) and Thr172 phosphorylation (bottom) by LKB1 of AMPK-γ1 complexes expressed in HeLa cells. FLAG-tagged AMPK-γ1, either wild-type (WT) or R299G mutant (RG), was expressed in HeLa cells and AMPK complexes precipitated using anti-FLAG antibody. The complexes (which have low basal phosphorylation due to lack of LKB1 in HeLa cells) were incubated with or without a limiting amount of LKB1, AMP (200 μM) or SU6656 (3 μM) for 10 min and AMPK activity determined.
We next used unphosphorylated α2-KD and tested the effect of SU6656 on its activation and phosphorylation by LKB1.

[7] = test system: AMPK; parameters: method as in Bain et al., 2007; conditions: ref Bain et al., 2007; cited from earlier work
[8] = test system: Raptor; assay: Raptor phosphorylation in HEK293 cells (western blot); format: cell-based, human; conditions: 1 hr
Experimental: Figure 1 SU6656 Activates AMPK but Not AMPK-Related Kinases (A) HEK293 cells were incubated with the indicated concentrations of SU6656 or berberine (300 μM) for 1 hr; total AMPK activity was assayed in immunoprecipitates (top; mean ± SEM, n = 4), and phosphorylation of AMPK (Thr172), ACC (Ser80), and Raptor (Ser792) analyzed by western blotting (bottom; n = 2). (B) HEK293 cells were incubated with 100 μM SU6656 (1 hr), AMPK complexes containing α1, α2, β1, and β2 immunoprecipitated using isoform-specific antibodies, and AMPK activity measured (mean ± SEM, n = 4). (C) HeLa cells stably expressing LKB1 ([Fogarty et al., 2010]) were incubated with 100 μM SU6656 for 1 hr, AMPK or individual ARKs immunoprecipitated, and kinase assays carried out (antibodies that distinguish MARK2/MARK3 were not available, so they were assayed together). Results are means ± SEM (n = 2). In all panels, asterisks indicate significant differences from controls without SU6656. *p < 0.05, **p < 0.01, ****p < 0.0001.
SDS-PAGE was performed using precast Bis-Tris 4–12% gradient polyacrylamide gels in the MOPS buffer system (ThermoFisher Scientific). Proteins were transferred to nitrocellulose membranes using the iBlot 2 system (ThermoFisher Scientific). […] Protein concentrations were determined by Coomassie Blue binding with bovine serum albumin as standard ([Bradford, 1976]). […]

activation and Thr172 phosphorylation by LKB1 [3] | AMPK activation response with Y436F mutation [4] | concentrations inhibiting both basal and AMP-stimulated activity [5] | activation of α2-KD by LKB1 ([6]; SU6656 up to 10 μM) [fold] | Kd ([6]; read-out: half-maximal effect on α2-KD activation by LKB1) [nM] | Structure (SMILES) | Erk1/Erk2 phosphorylation [1] | Erk1/2 phosphorylation [2] | inhibition of AMPK relative to Src [7] | Raptor phosphorylation [8]
preserved | unaffected by the Y436F mutation | above 1 μM | 1.9 ± 0.2 | 200 ± 20 | CN(C)S(=O)(=O)c1ccc2c(c1)/C(=C/c1cc3c([nH]1)CCCC3)C(=O)N2 [SU6656] | reduced phosphorylation of Erk1/Erk2 | inhibited Erk1/2 phosphorylation | inhibits AMPK as effectively as Src | 
 |  |  |  |  | COc1ccc2cc3[n+](cc2c1OC)CCc1cc2c(cc1-3)OCO2 [berberine] |  |  |  | did promote Raptor phosphorylation
